Measured values: US20070148660A1, “Treatment of maladaptive substance use with H-ras antagonists” (The Regents of the University of California, priority 2005, published 2007)
Marks after values point to notes of the source that are not given here.

What was measured:
[1] = tested on: NR2A subunit of the NMDAR; assay: BS3 cross-linking, surface vs internalized NR2A in hippocampal slices; assay type: cell-based, mouse
Method: (§1) Transverse hippocampal slices ([…]) were prepared from 10- to 12-week-old C57BL/6J mice. Slices were allowed to recover for 90 min in artificial cerebrospinal fluid (aCSF) saturated with 95% O2/5% CO2 containing (in mM): 126 NaCl, 1.2 KCl, 1.2 NaH2PO4, 1.2 MgCl2, 2.4 CaCl2, 18 NaHCO3, and 11 glucose. Following recovery, slices were treated with aCSF (control) or ethanol at room temperature, after which the slices were rinsed in cold aCSF, and used either for cross-linking experiments, for Ras activity assay, or for immunoprecipitation. In experiments using Tat-H-Ras DN or the Tat-peptide, the slices were pretreated with either aCSF (control) or 2 μM Tat-H-Ras DN or Tat-peptide for 2 hrs at room temperature, followed by ethanol treatments.
(§2) Cross-linking was performed as described previously (22), with minor modifications. Following treatment, the slices were placed in cold aCSF in the presence or absence of 2 mg/ml of the cross-linking reagent BS^3 for 45 min at 4° C. while shaking. Slices were then rinsed three times with cold aCSF containing 20 mM Tris (pH 7.6), followed by sonication in cold homogenization buffer (10% SDS, 10 mM EDTA, 100 mM Tris (pH 8.0), and protease and phosphatase inhibitor cocktails). The protein concentration was determined using the BCA assay, followed by SDS-PAGE and Western blot analysis. Data are expressed as ratio of normalized surface expressed or internalized receptors to the total receptor levels.
(§3) Proteins were separated by SDS-PAGE and blotted onto a nitrocellulose membrane. After blocking, the membranes were incubated with the specific primary antibody, followed by horseradish peroxidase-conjugated secondary antibody. Detection was obtained followed by enhanced chemiluminescent reaction (Amersham Biosciences), and processed using the STORM PhosphoImager (Amersham Biosciences). Results were quantified by NIH Image 1.61.

[2] = tested on: GluR1 subunit of the AMPAR; details: 100 mM ethanol, 15 min, hippocampal slices
Method: as §1, §2, §3

NR1 subunit of the NMDAR = details: 100 mM ethanol, 15 min, hippocampal slices
Method: as §1, §2, §3

NR2B subunit = details: 100 mM ethanol, 15 min, hippocampal slices
Method: as §1, §2, §3

NR2A = details: 100 mM ethanol, 15 min, L(-tk) cells NR1+NR2A
Method: L(−tk) were cultured on 100 mm plates. When cells reached 75% confluency, they were transfected with 5 μg of PSD95-GFP cDNA using LipofectAMINE PLUS in accordance with the manufacturer's instructions. 24 hrs after transfection, the expression of the NMDAR subunits NR1+NR2A or NR1+NR2B was induced with […] dexamethasone in DMEM containing 10% FBS, and 0.5 mM ketamine as previously described (21). After 3 days of induction, the cross-linking or immunoprecipitation studies were conducted. Homogenates were obtained as described in (17).
as §2
Proteins were separated by SDS-PAGE and blotted onto a nitrocellulose membrane. […] Results were quantified by NIH Image 1.61.

NMDAR = assay: NMDAR-mediated EPSCs, whole-cell voltage clamp, hippocampal CA1; assay type: cell-based, mouse; details: for slowing of the weighted decay time compared to the control: 80 mM ethanol; for % Fast / τF / τS / τW: double exponential fit; for τW: 0 min 47.4 ms
Method: Electrophysiological recordings were performed in C57BL/6J mice ranging from P21 to P26. Briefly, mice were anesthetized with halothane and decapitated as per University of California, San Francisco animal care guidelines. Horizontal sections of the hippocampus ([…]) were prepared with a vibratome (Leica, Nussloch, Germany). Slices were placed in a holding chamber and allowed to recover for at least 1 hr before being placed in the recording chamber and superfused with aCSF saturated with 95% O2/5% CO2 and containing (in mM): 119 NaCl, 1.6 KCl, 1.0 NaH2PO4, 1.3 MgCl2 (for EPSCs) or 0.01 MgCl2 (for field excitatory postsynaptic potentials (fEPSPs)), 2.5 CaCl2, 26.2 NaHCO3 and 11 glucose. Picrotoxin (100 μM) was added to block gamma-aminobutyric acid-A (GABAA) receptor-mediated inhibitory synaptic transmission, and CNQX (for EPSCs) or NBQX (for fEPSPs) (10 μM) was added to block α-amino-3-hydroxy-5-methyl-4-isoxalepropionate (AMPA)/Kainate receptors. Cells were visualized using infrared differential interference contrast video microscopy.
Whole-cell voltage clamp-recordings were made using an Axopatch ID or a MultiClamp 700A amplifier (Axon Instruments, Union City, Calif.). Electrodes (3.5-5.0 MΩ) contained (in mM): 120 Cesium methansulfonate, 20 HEPES, 0.4 EGTA, 2.8 NaCl, 5 TEA-Cl, 2.5 MgATP, and 0.25 NaGTP (pH 7.2-7.3), buffer at 270-285 mOsm. Series resistance (10-30 MΩ) and input resistance were monitored on-line with a 4 mV depolarizing step (50 ms) given just after every afferent stimulus. Recordings from the CA1 region of the hippocampus were obtained with a bipolar stimulating electrode that was placed 100-300 μm rostral to the recording electrode and was used to stimulate excitatory afferents at 0.1 Hz. Neurons were voltage-clamped at +40 mV to evoke NMDAR-mediated EPSCs. At this potential, NMDARs have a maximal open probability and the Mg^2+ block is removed. EPSCs were filtered at 2 kHz, digitized at 5-10 kHz and collected on-line using Igor Pro software (Wavemetrics, Lake Oswego, Oreg.) or pClamp 9 (Axon Instruments, Union City, Calif.). NMDAR example traces were constructed by averaging 20 EPSCs (200 sec) elicited at +40 mV during baseline, ethanol application, drug application or drug application with ethanol. To calculate the decay time (τ), Igor Pro software was used to fit exponential decay curves to averaged NMDAR-mediated EPSCs using the formula: y=A1exp(−invTau1*x)+A2exp(−invTau2X).

[3] = 15 min exposure to ethanol (80 mM), n=6
[4] = 30 min exposure to ethanol (80 mM), n=6

**Q.** What does the source list for `CCO` [ethanol]?
**A.** change in subcellular localization of NR2A after ethanol washout ([1]; 100 mM ethanol 15 min, washed out, 15 min recovery): not observed; intracellular level of NR2A ([1]; 100 mM ethanol, 15 min, hippocampal slices): significant increase; NR2A internalization in Fyn+/+ and Fyn-/- mice ([1]; 100 mM ethanol, 15 min, slices from Fyn+/+ and Fyn-/- mice): significantly enhanced; internalization of the NR2A subunits in Src+/+ mice ([1]; 100 mM ethanol, 15 min, slices from Src+/+ mice): significantly increased; NR2A internalization in Src+/- mice upon ethanol ([1]; 100 mM ethanol, 15 min, slices from Src+/- mice, NR2A internalized under basal conditions): no additional changes; surface expression of the NR2A subunit at lower ethanol concentrations ([1]; ethanol as low as 25 mM, 15 min, hippocampal slices): reduction; surface expression of the GluR1 subunit [2]: no change; surface expression of the NR1 subunit (NR1 subunit of the NMDAR): no change; membranal localization of the NR2B subunit (NR2B subunit): did not alter; internalized pool of NR2A (NR2A): increase; inhibition of EPSCs at low ethanol concentration (NMDAR; 25 mM ethanol, n=18, data not shown): 24±6%; effect of ethanol on the remaining portion of the NMDAR EPSCs (NMDAR; 80 mM ethanol bath applied after NVP-AAM077 0.4 μM): did not alter; slowing of the weighted decay time compared to the control (NMDAR; after 15 min, n=6): 33±14%; slowing of the weighted decay time compared to the control (NMDAR; after 30 min, n=6): 70±29%; % Fast (NMDAR; [3]): 12.5 ± 3.1%; τF (NMDAR; [3]): 34.5 ± 2.1 ms; τS (NMDAR; [3]): 256.3 ± 51.8* ms; τW (NMDAR; [3]): 62.2 ± 10* ms; τW (NMDAR; 15 min exposure to ethanol (80 mM), n=6, listed as Ethanol): 62 ± 10 ms; % Fast (NMDAR; [4]): 112.6 ± 2.0%; τF (NMDAR; [4]): 42.4 ± 4.4* ms; τS (NMDAR; [4]): 354.0 ± 91.1 ms; τW (NMDAR; [4]): 77.8 ± 14.1* ms; τW (NMDAR; 30 min exposure to ethanol (80 mM), n=6, listed as Ethanol): 78 ± 14 ms; inhibition of NMDAR-mediated EPSCs (NMDAR; bath application of 80 mM ethanol, n=9, data not shown): 37±7%; further decrease in remaining current (NMDAR; bath application of ethanol in the presence of ifenprodil (3 μM)): 36%; total reduction of NMDAR EPSCs (NMDAR; ifenprodil (3 μM) plus ethanol, n=6): 73±7%
